# Results: patent US11066693B2, “Methods for diagnosing LHRH or hCG/LH receptor expressing tumors, cancers and neoplasias” (ESPERANCE PHARMACEUTICALS, INC., priority 2009, dated 2021)
# Ends that are not written are not given here.
# How the values were obtained:
# [1] = tested on: PC-3 prostate cancer cell line; conditions: read-out: Cytotoxicity evaluated as IC50 value; PC-3, 24 h at 37° C., MTT
# Protocol: (§1) Studies were designed to test receptor specificity, correlation of sensitivity to LHRH receptor expression and initial efficacy kinetics in vitro by comparing targeted kinetics to untargeted kinetics. […] Cytotoxicity was evaluated as IC50 value for each cell line.
# (§2) Cell cultures were prepared in 96 well plates using 10,000 cells/well and were allowed to attach for 48 hours. […] Incubations were conducted for 24 h at 37° C. Cell viability was determined using formazan conversion assays (MTT assays). Controls contained USP saline or 0.1% TritonX-100™ as reference for 0 and 100% cell death, respectively.
# (§3) Data were processed and analyzed using Graph Pad Prizm 4™ software (Graph Pad Prizm, Inc). Statistical analysis for significance was determined by a two-tailed Student's T-test.
# [2] = tested on: MDA-MB-4355 breast cancer cell line; conditions: read-out: Cytotoxicity evaluated as IC50 value; MDA-MB-4355, highest LHRH receptor capacity, 24 h at 37° C., MTT
# Protocol: as §1, §2, §3
# [3] = tested on: MDA-MB-231 human breast cancer cell line; test: In vitro cytotoxicity, MTT cell viability assay; format: cell-based
# Protocol: Incubations were conducted for 24 h at 37° C.
# [4] = tested on: OVCAR-3 ovarian cancer cell line; conditions: read-out: Cytotoxicity evaluated as IC50 value; OVCAR-3, 24 h at 37° C., MTT
# Protocol: as §1, §2, §3
# [5] = tested on: AN3-CA human endometrial cancer cell line; conditions: read-out: Cytotoxicity evaluated as IC50 value, 24 h at 37° C., MTT
# Protocol: as §1, §2, §3
# [6] = tested on: SKOV-3 LHRH receptor negative ovarian cancer cell line; conditions: read-out: Cytotoxicity evaluated as IC50 value, 24 h at 37° C., MTT
# Protocol: as §1, §2, §3
# [7] = tested on: LNCaP prostate cancer cell line; conditions: read-out: Cytotoxicity evaluated as IC50 value, 24 h at 37° C., MTT
# Protocol: as §1, §2, §3
Molecule,IC50 [1] [µM],IC50 [2] [µM],"IC50 ([3]; MDA-MB-231 (ER, Her2/neu, PR negative, multi drug resistant), 24 h at 37° C., MTT, read-out: Cytotoxicity evaluated as IC50 value) [µM]",IC50 [4] [µM],IC50 [5] [µM],IC50 [6] [µM],IC50 [7] [µM],"Sensitivity of cell line to the drug ([3]; MDA-MB-231, multi drug resistant)"
KFAKFAKKFAKFAKKFAKQHWSYGLRPG [EP-100],5.5,0.8,5.5,3,3.3,> 10,1.5,–
"N.N.[Cl][Pt][Cl] [cisplatinum, reference compound]",–,–,–,–,–,–,–,insensitive
